Results as given in patent US11083725B2 (priority 2014, dated 2021).

Test system: NHBE cells
Assay: Biolog metabolic array: substrate use by NHBE cells with or without CA09 infection
Format: cell-based, human
Conditions: for Substrate use, 590 nm absorbance normalized to zero hour, 0 hr: Biolog PMM2, 0 hr; for Substrate use, 590 nm absorbance normalized to zero hour, 1 hr: Biolog PMM2, 1 hr; for Substrate use, 590 nm absorbance normalized to zero hour, 5 hr: Biolog PMM2, 5 hr; for Substrate use, 590 nm absorbance normalized to zero hour, 7 hr: Biolog PMM2, 7 hr
[1] = Control (uninfected) NHBE cells
[2] = Virus (CA09-infected NHBE cells, MOI 1)
[3] = Virus: CA09-infected NHBE cells, MOI 1, Biolog PMM2
[4] = Virus (CA09, MOI 1) infected NHBE cells
[5] = Virus (CA09-infected, MOI 1) NHBE cells

| Compound | 590 nm absorbance normalized to zero hour (substrate use), 0 hr [1] | 590 nm absorbance normalized to zero hour (substrate use), 1 hr [1] | 590 nm absorbance normalized to zero hour (substrate use), 2 hr [1] | 590 nm absorbance normalized to zero hour (substrate use), 3 hr [1] | 590 nm absorbance normalized to zero hour (substrate use), 4 hr [1] | 590 nm absorbance normalized to zero hour (substrate use), 6 hr [1] | 590 nm absorbance normalized to zero hour (substrate use), 8 hr [1] | 590 nm absorbance normalized to zero hour (substrate use), 9 hr [1] | 590 nm absorbance normalized to zero hour (substrate use), 10 hr [1] | 590 nm absorbance normalized to zero hour (substrate use), 11 hr [1] | Substrate use, 590 nm absorbance normalized to zero hour, 0 hr [1] | Substrate use, 590 nm absorbance normalized to zero hour, 1 hr [1] | Substrate use, 590 nm absorbance normalized to zero hour, 5 hr [1] | Substrate use, 590 nm absorbance normalized to zero hour, 7 hr [1] | 590 nm absorbance normalized to zero hour (substrate use), 0 hr [2] | 590 nm absorbance normalized to zero hour (substrate use), 1 hr [2] | 590 nm absorbance normalized to zero hour (substrate use), 2 hr [2] | 590 nm absorbance normalized to zero hour (substrate use), 3 hr [2] | 590 nm absorbance normalized to zero hour (substrate use), 4 hr [2] | 590 nm absorbance normalized to zero hour (substrate use), 5 hr [2] | further results |
| --- | --- | --- | --- | --- | --- | --- | --- | --- | --- | --- | --- | --- | --- | --- | --- | --- | --- | --- | --- | --- | --- |
| CCC(=O)C(=O)O [a-Keto-Butyric Acid] | 1.00 | 1.10 | 1.17 | 1.24 | 1.25 | 1.49 | 1.34 | 1.36 | 1.37 | 1.39 | 1.00 | 1.10 | 1.28 | 1.33 | 1.00 | 0.28 | 0.29 | 0.30 | 0.31 | 0.32 | 590 nm absorbance normalized to zero hour (substrate use), 6 hr [2]: 0.32; 590 nm absorbance normalized to zero hour (substrate use), 7 hr [2]: 0.33; 590 nm absorbance normalized to zero hour (substrate use), 8 hr [2]: 0.33; 590 nm absorbance normalized to zero hour (substrate use), 9 hr [2]: 0.34; 590 nm absorbance normalized to zero hour (substrate use), 10 hr [2]: 0.34; 590 nm absorbance normalized to zero hour (substrate use), 11 hr [2]: 0.34; 590 nm absorbance normalized to zero hour (substrate use), 0 hr [3]: 1.00; 590 nm absorbance normalized to zero hour (substrate use), 1 hr [3]: 0.28; 590 nm absorbance normalized to zero hour (substrate use), 2 hr [3]: 0.29; 590 nm absorbance normalized to zero hour (substrate use), 3 hr [3]: 0.30; 590 nm absorbance normalized to zero hour (substrate use), 4 hr [3]: 0.31; 590 nm absorbance normalized to zero hour (substrate use), 5 hr [3]: 0.32; 590 nm absorbance normalized to zero hour (substrate use), 6 hr [3]: 0.32; 590 nm absorbance normalized to zero hour (substrate use), 7 hr [3]: 0.33; 590 nm absorbance normalized to zero hour (substrate use), 8 hr [3]: 0.33; 590 nm absorbance normalized to zero hour (substrate use), 9 hr [3]: 0.34; 590 nm absorbance normalized to zero hour (substrate use), 10 hr [3]: 0.34; 590 nm absorbance normalized to zero hour (substrate use), 11 hr [3]: 0.34 |
| OCc1ccccc1O[C@@H]1O[C@H](CO)[C@@H](O)[C@H](O)[C@H]1O [Salicin] |  | 1.17 | 0.93 | 0.96 | 0.83 | 0.43 | 0.67 | 0.66 | 0.62 | 0.62 |  | 1.17 | 0.78 | 0.69 |  |  |  |  |  |  | Substrate use, 590 nm absorbance normalized to zero hour, 1 hr [4]: 0.77; Substrate use, 590 nm absorbance normalized to zero hour, 5 hr [4]: 1.64; Substrate use, 590 nm absorbance normalized to zero hour, 7 hr [4]: 1.87; 590 nm absorbance normalized to zero hour (substrate use), 1 hr [5]: 0.77; 590 nm absorbance normalized to zero hour (substrate use), 2 hr [5]: 1.06; 590 nm absorbance normalized to zero hour (substrate use), 3 hr [5]: 1.26; 590 nm absorbance normalized to zero hour (substrate use), 4 hr [5]: 1.36; 590 nm absorbance normalized to zero hour (substrate use), 6 hr [5]: 1.76; 590 nm absorbance normalized to zero hour (substrate use), 8 hr [5]: 2.01; 590 nm absorbance normalized to zero hour (substrate use), 9 hr [5]: 2.26; 590 nm absorbance normalized to zero hour (substrate use), 10 hr [5]: 2.38; 590 nm absorbance normalized to zero hour (substrate use), 11 hr [5]: 2.62 |
| OC[C@@H]1OC(O)[C@@H](O)[C@H](O)[C@H]1O (stereo partly drawn) [L-Glucose] | 1.00 | 1.65 | 2.20 | 2.64 | 2.83 | 3.82 | 3.55 | 3.76 | 3.89 | 4.25 | 1.00 | 1.65 | 3.52 | 3.51 | 1.00 | 0.29 | 0.39 | 0.45 | 0.49 | 0.57 | 590 nm absorbance normalized to zero hour (substrate use), 6 hr [2]: 0.61; 590 nm absorbance normalized to zero hour (substrate use), 7 hr [2]: 0.64; 590 nm absorbance normalized to zero hour (substrate use), 8 hr [2]: 0.68; 590 nm absorbance normalized to zero hour (substrate use), 9 hr [2]: 0.76; 590 nm absorbance normalized to zero hour (substrate use), 10 hr [2]: 0.76; 590 nm absorbance normalized to zero hour (substrate use), 11 hr [2]: 0.86; 590 nm absorbance normalized to zero hour (substrate use), 0 hr [3]: 1.00; 590 nm absorbance normalized to zero hour (substrate use), 1 hr [3]: 0.29; 590 nm absorbance normalized to zero hour (substrate use), 2 hr [3]: 0.39; 590 nm absorbance normalized to zero hour (substrate use), 3 hr [3]: 0.45; 590 nm absorbance normalized to zero hour (substrate use), 4 hr [3]: 0.49; 590 nm absorbance normalized to zero hour (substrate use), 5 hr [3]: 0.57; 590 nm absorbance normalized to zero hour (substrate use), 6 hr [3]: 0.61; 590 nm absorbance normalized to zero hour (substrate use), 7 hr [3]: 0.64; 590 nm absorbance normalized to zero hour (substrate use), 8 hr [3]: 0.68; 590 nm absorbance normalized to zero hour (substrate use), 9 hr [3]: 0.76; 590 nm absorbance normalized to zero hour (substrate use), 10 hr [3]: 0.76; 590 nm absorbance normalized to zero hour (substrate use), 11 hr [3]: 0.86 |
